Source: patent US8399676B2, “Piperidine derivatives” (Hoffman-La Roche Inc., priority 2009, dated 2013)
Structures can show the parent of a compound that is named as a salt.

Biological target: T1, human HSL (Homo sapiens, UniProt Q05469)
T1 construct: generate a full length human HSL ORF with a 3′-His6 tag; His6 (C); made in house; host or cells: High 5 insect cells (baculovirus, pFast-BAC)
T1 sequence (Q05469 1-1076): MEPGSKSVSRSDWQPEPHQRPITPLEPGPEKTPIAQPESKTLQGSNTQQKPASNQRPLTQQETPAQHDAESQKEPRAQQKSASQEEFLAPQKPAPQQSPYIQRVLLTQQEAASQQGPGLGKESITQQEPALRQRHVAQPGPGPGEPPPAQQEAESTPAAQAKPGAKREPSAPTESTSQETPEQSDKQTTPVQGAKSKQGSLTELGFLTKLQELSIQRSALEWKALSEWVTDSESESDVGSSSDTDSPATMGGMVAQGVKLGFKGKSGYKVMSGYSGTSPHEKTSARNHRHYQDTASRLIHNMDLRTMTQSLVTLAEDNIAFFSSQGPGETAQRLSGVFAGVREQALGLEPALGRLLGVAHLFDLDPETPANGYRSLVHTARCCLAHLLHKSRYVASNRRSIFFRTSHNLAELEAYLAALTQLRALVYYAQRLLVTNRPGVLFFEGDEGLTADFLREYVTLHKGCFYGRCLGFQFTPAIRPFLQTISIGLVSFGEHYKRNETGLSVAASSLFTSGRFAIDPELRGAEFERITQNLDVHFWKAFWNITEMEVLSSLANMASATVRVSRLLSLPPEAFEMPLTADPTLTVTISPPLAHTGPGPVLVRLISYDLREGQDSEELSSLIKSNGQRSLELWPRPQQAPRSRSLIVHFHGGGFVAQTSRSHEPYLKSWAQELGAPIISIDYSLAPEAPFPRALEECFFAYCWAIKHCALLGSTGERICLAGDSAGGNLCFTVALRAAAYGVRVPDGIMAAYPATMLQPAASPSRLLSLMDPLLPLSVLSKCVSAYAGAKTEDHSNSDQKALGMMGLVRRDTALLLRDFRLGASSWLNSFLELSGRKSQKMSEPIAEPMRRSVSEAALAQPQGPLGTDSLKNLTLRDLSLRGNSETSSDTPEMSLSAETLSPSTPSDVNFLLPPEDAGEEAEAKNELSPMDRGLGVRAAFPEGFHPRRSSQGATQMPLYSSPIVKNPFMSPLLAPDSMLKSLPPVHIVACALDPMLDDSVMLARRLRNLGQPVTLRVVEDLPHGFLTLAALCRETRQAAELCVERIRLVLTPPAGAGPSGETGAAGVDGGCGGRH
Experiment: Human Hormone-Sensitive Lipase (HSL) enzyme inhibition assay (colorimetric, DMPT substrate)
Format: biochemical
Details: read-out: HSL hum IC50
Experimental: Production of Human Full Length Hormone Sensitive Lipase-His^6
1) Cloning: cDNA was prepared from commercial human brain polyA+ RNA and used as a template in overlapping PCR to generate a full length human HSL ORF with a 3′-His6 tag. This full length insert was cloned into the pFast-BAC vector and the DNA-sequence of several single clones was verified. DNA from a correct full length clone with the 3′His6 tag was used to transform the E. coli strain DH10BAC. Resulting bacmid DNA was used to generate a titered baculovirus stock for protein generation. The sequence of the encoded HSL conforms to Swissprot entry Q05469, with the additional C-terminal His6-tag.
2) Protein purification: Culture: 5.5 L, High 5 cells expressing human full length HSL-His^6, 48 hr., containing 25 μM E-64. Cell count: […], 90% viable.
Cells were thawed. On ice, cells were suspended in Base Buffer containing 10% glycerol, 25 mM Tris-Cl, 300 mM NaCl, 10 mM imidazole, 10 mM 2-mercaptoethanol, 2 μg pepstatin/ml, 2 μg leupeptin/ml, 2 μg antipain/ml, pH 8.0 at 4° C. in a final volume of 475 ml with 3.75×10^7 cells/ml. […] was done at 3×30 sec., Lubrol PX was added to 0.2% final concentration followed by stirring for 15 min. at 4° C. and centrifugation at 25 k×g, 60 min., 4° C. Soluble proteins were mixed with 60 ml of pre-washed and equilibrated Ni-NTA Agarose (Qiagen 30210) followed by tumbling end-over-end, 45 min., 4° C., centrifugation 1000 rpm 5 min and letting resin settle 5 min. Supernatant was removed, the resin washed in the centrifuge vessel using 5 volumes of Base Buffer containing 0.2% Lubrol PX. Centrifugation was done again, then the supernatant discarded. The resin was poured onto a 0.8 μm membrane in a disposable filter unit (Nalge 450-0080), and washed with 5 volumes of Base Buffer containing 0.2% Lubrol PX. It was then washed with 30 volumes of Base Buffer containing 60 mM imidazole pH 7.5 at 4° C. The protein was eluted with 5 volumes of 25 mM Tris-Cl, 300 mM NaCl, 200 mM imidazole, 10 mM 2-mercaptoethanol, pH 7.5 at 4° C. by tumbling resin with buffer end-over-end, 30 min., 4° C. The resin was captured on a 0.2 μm membrane disposable filter unit (Millipore SCGP U02 RE) and the elute collected in the reservoir. The elute was concentrated using a 30 k MWCO centrifugal filter device (Sartorius Vivascience Vivacell 100, VC1022), to 20 ml. It was then dialyzed overnight at 4° C., two times against 2 L of 10% glycerol, 25 mM Tris-Cl, 300 mM NaCl, 0.2 mM EDTA, 0.2 mM DTT, pH 7.5 at 4° C. The protein was filtered using a 0.22 μm disposable filter unit (Millipore SCGP00525). The protein concentration was calculated from absorbance at 280 nm, using 280=0.67 cm-1 mg-1. Yield was 235 mg, total. The protein was stored at −80° C. Human Hormone-Sensitive Lipase (HSL) enzyme inhibition assay:
HSL enzyme activity was measured by a colorimetric assay using 2,3-dimercapto-1-propanol tributyrate (Aldrich, St. Louis, Mo.) as a substrate. Typically, 1.5 mM 2,3-dimercapto-1-propanol tributyrate (DMPT) in 100 mM MOPS, pH 7.2, 0.2 mg/ml fatty acid-free BSA was prepared by sonication at 4° C. to homogenous suspension. Test compounds (2 mM stock in DMSO) were diluted 3 fold in series in DMSO. Compound solutions were diluted 24 fold in 1.5 mM DMPT containing solution and 18 ul per well was added to 384-well microplates (Corning Costar). Twelve microliters per well of human HSL (15 ug/ml) was added and the reaction mixture was incubated at 37° C. for 20 minutes. Six microliters of 12 mM dithio-bis-(2-nitrobenzoic acid) (DTNB) in DMSO plus 1.2% SDS and 0.6% Triton X-100 were added and the mixture was incubated at room temperature for 15 minutes. Product production was monitored by reading absorbance at 405 nm on an Envision Reader (PerkinElmer Life and Analytical Sciences, Shelton, Conn.).

SMILES | IC50 [nM]
CC(C)c1ccc(NC(=O)C2(N)CCN(Cc3ccccc3Cl)CC2)cc1 [Example 110, 4-Amino-1-(2-chloro-benzyl)-piperidine-4-carboxylic acid (4-isopropyl-phenyl)-amide; hydrochloride] | 80
Cc1ccc(S(=O)(=O)N2CCC(N)(C(=O)Nc3ccc(C(C)(C)C)cc3)CC2)cc1 [Example 77, 4-Amino-1-(toluene-4-sulfonyl)-piperidine-4-carboxylic acid (4-tert-butyl-phenyl)-amide; hydrochloride] | 50
CC(C)Oc1ccc(NC(=O)C2(N)CCN(S(=O)(=O)c3ccccc3Cl)CC2)cc1 [Example 96, 4-Amino-1-(2-chloro-benzenesulfonyl)-piperidine-4-carboxylic acid (4-isopropoxy-phenyl)-amide] | 50
CCc1ccc(NC(=O)C2(N)CCN(Cc3ccccc3C(F)(F)F)CC2)cc1 [Example 157, 4-Amino-1-(2-trifluoromethyl-benzyl)-piperidine-4-carboxylic acid (4-ethyl-phenyl)-amide] | 180
CCc1cccc(NC(=O)C2(N)CCN(S(=O)(=O)c3ccccc3Cl)CC2)c1 [Example 92, 4-Amino-1-(2-chloro-benzenesulfonyl)-piperidine-4-carboxylic acid (3-ethyl-phenyl)-amide] | 860
CCCCc1ccc(S(=O)(=O)N2CCC(N)(C(=O)Nc3ccc(CC)cc3)CC2)cc1 [Example 141, 4-Amino-1-(4-butyl-benzenesulfonyl)-piperidine-4-carboxylic acid (4-ethyl-phenyl)-amide] | 90
CCCCc1ccc(NC(=O)C2(N)CCN(S(=O)(=O)c3ccccc3Cl)CC2)cc1 [Example 104, 4-Amino-1-(2-chloro-benzenesulfonyl)-piperidine-4-carboxylic acid (4-butyl-phenyl)-amide] | 60
CCc1ccc(NC(=O)C2(N)CCN(S(=O)(=O)c3ccc(OC(F)(F)F)cc3)CC2)cc1 [Example 138, 4-Amino-1-(4-trifluoromethoxy-benzenesulfonyl)-piperidine-4-carboxylic acid (4-ethyl-phenyl)-amide] | 310
CC(C)(C)c1ccc(NC(=O)C2(O)CCN(Cc3ccc(C(F)(F)F)cc3)CC2)cc1 [Example 20, 4-Hydroxy-1-(4-trifluoromethyl-benzyl)-piperidine-4-carboxylic acid (4-tert-butyl-phenyl)-amide] | 320
Cc1ccc(S(=O)(=O)N2CCC(O)(C(=O)Nc3ccc(C(C)C)cc3)CC2)cc1 [Example 5, 4-Hydroxy-1-(toluene-4-sulfonyl)-piperidine-4-carboxylic acid (4-isopropyl-phenyl)-amide] | 210
CC(C)c1ccc(NC(=O)C2(N)CCN(Cc3ccccc3C(F)(F)F)CC2)cc1 [Example 114, 4-Amino-1-(2-trifluoromethyl-benzyl)-piperidine-4-carboxylic acid (4-isopropyl-phenyl)-amide; hydrochloride] | 210
CC(C)c1ccc(NC(=O)N2CCC(N)(C(=O)Nc3ccc(C(C)C)cc3)CC2)cc1 [Example 107, 4-Amino-piperidine-1,4-dicarboxylic acid bis-[(4-isopropyl-phenyl)-amide]; hydrochloride] | 80
CC(C)c1ccc(NC(=O)C2(N)CCN(C(=O)c3ccc(C(F)(F)F)cc3)CC2)cc1 [Example 126, 4-Amino-1-(4-trifluoromethyl-benzoyl)-piperidine-4-carboxylic acid (4-isopropyl-phenyl)-amide] | 250
CC(C)(C)c1ccc(NC(=O)C2(O)CCN(C(=O)Nc3ccc(C(F)(F)F)cc3)CC2)cc1 [Example 15, 4-Hydroxy-piperidine-1,4-dicarboxylic acid 4-[(4-tert-butyl-phenyl)-amide] 1-[(4-trifluoromethyl-phenyl)-amide]] | 410
CCc1ccc(NC(=O)C2(N)CCN(S(=O)(=O)c3ccccc3OC(F)(F)F)CC2)cc1 [Example 149, 4-Amino-1-(2-trifluoromethoxy-benzenesulfonyl)-piperidine-4-carboxylic acid (4-ethyl-phenyl)-amide] | 50
CC(C)(C)c1ccc(NC(=O)C2(O)CCN(C(=O)c3ccc(F)cc3C(F)(F)F)CC2)cc1 [Example 42, 1-(4-Fluoro-2-trifluoromethyl-benzoyl)-4-hydroxy-piperidine-4-carboxylic acid (4-tert-butyl-phenyl)-amide] | 600
NC1(C(=O)Nc2ccc(F)cc2)CCN(S(=O)(=O)c2ccccc2Cl)CC1 [Example 94, 4-Amino-1-(2-chloro-benzenesulfonyl)-piperidine-4-carboxylic acid (4-fluoro-phenyl)-amide] | 780
CCc1ccc(NC(=O)C2(N)CCN(S(=O)(=O)c3ccccc3F)CC2)cc1 [Example 134, 4-Amino-1-(2-fluoro-benzenesulfonyl)-piperidine-4-carboxylic acid (4-ethyl-phenyl)-amide] | 60
CC(C)Oc1ccc(NC(=O)C2(O)CCN(S(=O)(=O)c3ccccc3Cl)CC2)cc1 [Example 13, 1-(2-Chloro-benzenesulfonyl)-4-hydroxy-piperidine-4-carboxylic acid (4-isopropoxy-phenyl)-amide] | 190
CCN(C(=O)C1(O)CCN(S(=O)(=O)c2ccccc2C)CC1)c1ccc(OC(F)(F)F)cc1 [Example 74, 4-Hydroxy-1-(toluene-2-sulfonyl)-piperidine-4-carboxylic acid ethyl-(4-trifluoromethoxy-phenyl)-amide] | 880
CC(C)(C)c1ccc(NC(=O)C2(O)CCN(Cc3ccccc3)CC2)cc1 [Example 3, 1-Benzyl-4-hydroxy-piperidine-4-carboxylic acid (4-tert-butyl-phenyl)-amide] | 390
